The source of these data is US9440913B2, “Dihydroxybenzene derivatives and antiprotozoal agent comprising same as active ingredient” (NAI INC., priority 2010, dated 2016).

Data set [1] deals with T1, recombinant Trypanosome AOX (TAO) enzyme (Trypanosoma brucei brucei, UniProt Q26710).
T1 construct: made in house; host or cells: Escherichia coli (membrane fraction)
In words: TAO enzyme inhibition (quinol oxidase activity, ubiquinol-1 substrate). It is filed as biochemical, T. brucei brucei. The following applies: TAO-expressing E. coli membrane fraction, 25° C., ubiquinol-1, absorbance at 278 nm. The procedure:
Escherichia coli membrane fractions that express TAO by a plasmid harboring TAO cDNA cloned from T. brucei brucei (Fukai, Comparative Biochemistry & Physiology, 124, 141-148, 1999) were used as a recombinant Trypanosome AOX (TAO) enzyme. 50 mM Tris-HCl (pH 7.5), TAO-expressing membrane fraction (0.35 ng), and […] of an inhibitor were mixed in a 1 mL cuvette, and the mixture was incubated at 25° C. for 4 minutes. Ubiquinol-1 as a substrate was then added to the mixture to initiated the reaction, and change in absorbance at 278 nm was monitored (Shimadzu UV-3000, molar absorption coefficient ε=15 cm^−1 mM^−1).

In the next data set the test system is T. b. rhodesiense IL1501. In words: Antiprotozoal effect, MIC measurement in HMI-9 culture. As to conditions: bloodstream forms, 18 + 6 hours culture. Type of data set: cell-based. The procedure: T. b. rhodesiense IL1501, the human infectious protozoan that causes acute symptoms, was used as a Trypanosomatid protozoan. The bloodstream forms of protozoan can be cultured in a HMI-9 culture medium (Hirumi, 1989). The protozoan was always cultured at a temperature of 37° C. in the presence of 5% CO2.
In a microtiter plate (96-well, FALCON 3072), HMI-9 culture medium and HMI-9 culture medium plus glycerol added to make a final concentration of 8.33 mM are separately prepared. 89 μL of the preparation are put into only the first well, and a 60 μL aliquot of each the other wells. 1 μL of a solution of AF or a AF derivative dissolved in DMSO was added to the first well, and was then suspended. A 30 μL aliquot of the suspension was then collected, was transferred to the second well, and was suspended. These operations were repeated in this order to prepare a three-fold dilution series of drug. A 40 μL aliquot of a protozoan culture was added to each well to make a final concentration of 5×10^4 cells/well (a final concentration of glycerol of 5 mM) followed by 18-hours culturing under conditions of 37° C. and 5% CO2. (For EC50 measurement, a 10 μL aliquot of Alamar Blue was added to each well), culturing was carried out under the same conditions for 6 more hours, surviving protozoans were visually observed with a microscope. The concentration at which no motile surviving protozoan was observed was defined as MIC.

[2] abbreviates: Trypanosoma brucei, RHODESIENSE, 24 h, Glycerol (+), final concentration of glycerol of 5 mM.
Setting [3] is: Trypanosoma brucei, RHODESIENSE, 24 h, Glycerol (−).

pIC50: −log10 of the molar value.

T1 sequence (Q26710 whole entry): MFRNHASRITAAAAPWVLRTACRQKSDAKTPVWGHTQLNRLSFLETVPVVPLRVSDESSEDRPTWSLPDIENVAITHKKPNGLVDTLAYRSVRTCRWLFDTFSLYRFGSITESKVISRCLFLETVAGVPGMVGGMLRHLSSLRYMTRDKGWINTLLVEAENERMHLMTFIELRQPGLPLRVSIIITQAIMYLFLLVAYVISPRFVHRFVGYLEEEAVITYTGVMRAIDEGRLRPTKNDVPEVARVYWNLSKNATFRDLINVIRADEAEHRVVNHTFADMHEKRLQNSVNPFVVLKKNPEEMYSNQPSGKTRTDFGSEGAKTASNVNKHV

Broadly, the pIC50 is the negative decadic logarithm of the IC50, by convention in mol/L. On to `C/C(=C\COC(=O)C(C)(C)C)CC/C(C)=C/Cc1c(O)c(Cl)c(C)c(C=O)c1O` [Compound 287-12-OPiv, (2E,6E)-8-(3-Chloro-5-formyl-2,6-dihydroxy-4-methylphenyl)-3,6-dimethyl-2,6-octadienyl pivalate], for which the pIC50 in data set [1] is 9.44.
Usually melting point stands for the temperature, or range, at which the solid turns liquid. `COC(=O)c1c(C)cc(O)c(C/C=C(\C)CCC=C(C)C)c1O` [Compound 146, Methyl (E)-3-(3,7-Dimethyl-2,6-octadienyl)-2,4-dihydroxy-6-methylbenzoate] had a melting point of 46 to 47 °C.
The same measure, in the same setting: the value for `COC(=O)c1ccc(O)c(C/C=C(\C)CCC=C(C)C)c1O` [Compound 161, Methyl (E)-3-(3,7-Dimethyl-2,6-octadienyl)-2,4-dihydroxybenzoate] was 62 °C.
In general, MIC refers to the least concentration at which growth counts as inhibited. For the molecule `CCOC(=O)CCCCCCCc1c(O)c(Cl)c(C)c(C=O)c1O` [Compound 215-11-COOEt, Ethyl 8-(3-chloro-5-formyl-2,6-dihydroxy-4-methylphenyl)octanoate], the values for the MIC with T. b. rhodesiense IL1501 (setting [2]) and in the data set on T. b. rhodesiense IL1501 (setting [3]) were 8.5 nM and 48 nM, respectively. Also, in data set [1], the pIC50 is 9.30.
For the molecule `Cc1c(Cl)c(O)c(CCCCCCCCCOC(=O)C(C)C)c(O)c1C=O` [Compound 215-13-OCOiPr, 9-(3-Chloro-5-formyl-2,6-dihydroxy-4-methylphenyl)nonyl isobutylate], the pIC50 in data set [1] was 9.52.
In the case of `CCCCC/C(C)=C/COc1cc(O)c(C(C)=O)c(C)c1Cl` [Compound 270-8, (E)-3-Chloro-6-hydroxy-2-methyl-(3-methyl-2-octenoxy)acetophenone], the minimal inhibitory concentration (MIC) is 3700 nM in the data set with T. b. rhodesiense IL1501 (setting [2]) and 9200 nM with T. b. rhodesiense IL1501 (setting [3]). In addition, in data set [1], the negative logarithm of the IC50 (pIC50) was 6.52.
`C/C(=C\Cc1c(O)c(Cl)c(C)c(C=O)c1O)CC/C=C(\C)COC1CCCCO1` (stereo not drawn) [Compound 236-13-OTHP, 3-Chloro-5-[(2E,6E)-3,7-dimethyl-8-(tetrahydropyran-2-yloxy)-2,6-octadienyl]-4,6-dihydroxy-2-methylbenzaldehyde]: the pIC50 in data set [1] was 9.70.
The same measure, in the same setting: for `C/C(=C\COC(=O)C(C)C)CC/C(C)=C/Cc1c(O)c(Cl)c(C)c(C=O)c1O` [Compound 287-12-OCOiPr, (2E,6E)-8-(3-Chloro-5-formyl-2,6-dihydroxy-4-methylphenyl)-3,6-dimethyl-2,6-octadienyl isobutylate] the value was 9.59.
Regarding `Cc1c(Cl)c(O)c(/C=C/CCCCCC2CC(=O)C(C)(C)O2)c(O)c1C=O` (stereo not drawn) [Compound 249, 3-Chloro-4,6-dihydroxy-2-methyl-5-[(E)-7-(5,5-dimethyl-4-oxo-tetrahydrofuran-2-yl)-1-heptenyl]benzaldehyde], the values for the minimal inhibitory concentration (MIC) in the data set on T. b. rhodesiense IL1501 (setting [2]) and in the data set with T. b. rhodesiense IL1501 (setting [3]) were 18 nM and 74 nM, respectively. In addition, the pIC50 in data set [1] was 9.00.
As for `C/C(=C\CC/C=C/Cc1c(O)c(Cl)c(C)c(C=O)c1O)COC(=O)C(C)(C)C` [Compound 278-12-OPiv, (2E,6E)-8-(3-Chloro-5-formyl-2,6-dihydroxy-4-methylphenyl)-2-methyl-2,6-octadienyl pivalate], the pIC50 in data set [1] is 9.59.
For the molecule `C/C(=C\Cc1c(O)c(Cl)c(C)c(C=O)c1O)CC/C=C/COC(=O)C(C)(C)C` [Compound 289-12-OPiv, (2E,6E)-8-(3-Chloro-5-formyl-2,6-dihydroxy-4-methylphenyl)-6-methyl-2,6-octadienyl pivalate], the pIC50 in data set [1] is 9.70.
For the molecule `CCCCCC(C)CCc1c(O)c(Cl)c(C)c(C(C)=O)c1O` (stereo not drawn) [Compound 269-8, 3-Chloro-4,6-dihydroxy-2-methyl-5-(3-methyloctyl)acetophenone], the minimal inhibitory concentration (MIC) in the data set with T. b. rhodesiense IL1501 (Glycerol (+), final concentration of glycerol of 5 mM) is 70 nM; in the data set on T. b. rhodesiense IL1501 (Glycerol (−)), 500 nM. For the same molecule, the negative logarithm of the IC50 (pIC50) in data set [1] was 8.60.
Turning to `C/C(=C\Cc1c(O)c(Cl)c(C)c(C=O)c1O)CCCCOC(=O)C(C)(C)C` [Compound 264-11-OPiv, (5E)-7-(3-Chloro-5-formyl-2,6-dihydroxy-4-methylphenyl)-5-methyl-5-heptenyl pivalate], the pIC50 in data set [1] is 9.66.
Take `Cc1c(Cl)c(O)c(C/C=C/CCCC/C=C/C(=O)C(C)(C)C)c(O)c1C=O` [Compound 288-12-Piv, 3-Chloro-4,6-dihydroxy-5-((E,E)-11,11-dimethyl-10-oxo-2,8-dodecadienyl)-2-methylbenzaldehyde]: in data set [1], the pIC50 is 9.13.
In the case of `Cc1c(Cl)c(O)c(/C=C/CCCCCCOC(=O)C(C)C)c(O)c1C=O` [Compound 200-12-OCOiPr, (E)-8-(3-Chloro-5-formyl-2,6-dihydroxy-4-methylphenyl)-7-octenyl isobutylate], the pIC50 in data set [1] was 9.12.
In the case of `Cc1c(Cl)c(O)c(/C=C/CCCCCOC(=O)C(C)(C)C)c(O)c1C=O` [Compound 200-11-OPiv, (E)-7-(3-Chloro-5-formyl-2,6-dihydroxy-4-methylphenyl)-6-heptenyl pivalate], the MIC with T. b. rhodesiense IL1501 (setting [2]) amounted to 0.8 nM; in the data set on T. b. rhodesiense IL1501 (setting [3]) it was 22 nM. Also, the negative logarithm of the IC50 (pIC50) in data set [1] was 9.28.
On the same counts, the results for `CCCCC/C(C)=C/Cc1c(O)c(Cl)c(C)c(C=O)c1O` [Compound 264-8, (E)-3-Chloro-4,6-dihydroxy-2-methyl-5-(3-methyl-2-octenyl)benzaldehyde] are 0.002 nM, 0.18 nM and 10.22.
On the same counts, the results for `CC(=O)c1c(C)c(Cl)c(O)c(C/C=C(\C)CC/C=C(\C)COC(=O)C(C)(C)C)c1O` [Compound 175-12-OPiv, (2E,6E)-8-(5-Acetyl-3-chloro-2,6-dihydroxy-4-methylphenyl)-2,6-dimethyl-2,6-octadienyl pivalate] are 1.4 nM, 10 nM and 9.15.
Consider `CC(=O)c1c(C)c(Cl)c(O)c(C/C=C(\C)CC/C=C(\C)C2CC(=O)C(C)(C)O2)c1O` (stereo not drawn) [Compound 214, 5-Chloro-2,4-dihydroxy-6-methyl-3-[(2E,6E)-7-(5,5-dimethyl-4-oxotetrahydrohuran-2-yl)-3,7-dimethyl-2,6-heptadienyl]acetophenone], for which, in data set [1], the pIC50 was 9.52.
Regarding `CCOC(=O)CCCCCCCCCc1c(O)c(Cl)c(C)c(C=O)c1O` [Compound 215-13-COOEt, Ethyl 10-(3-chloro-5-formyl-2,6-dihydroxy-4-methylphenyl)decanoate], the minimal inhibitory concentration (MIC) was determined as 2 nM in the data set with T. b. rhodesiense IL1501 (setting [2]) and 24 nM in the data set on T. b. rhodesiense IL1501 (setting [3]). Further, the negative logarithm of the IC50 (pIC50) in data set [1] is 9.70.
In the case of `Cc1c(Cl)c(O)c(CCCCCCCCCC(=O)C(C)(C)C)c(O)c1C=O` [Compound 215-12-Piv, 3-Chloro-4,6-dihydroxy-5-(11,11-dimethyl-10-oxo-dodecyl)-2-methylbenzaldehyde], the pIC50 in data set [1] is 9.40.
As for `Cc1c(Cl)c(O)c(CCC(C)CCCCCOC(=O)C(C)(C)C)c(O)c1C=O` (stereo not drawn) [Compound 290-12-OPiv, 8-(3-Chloro-5-formyl-2,6-dihydroxy-4-methylphenyl)-6-methyloctyl pivalate], the negative-log IC50 (pIC50) in data set [1] was 9.52.
Same read-out and setting: for `COC(C)(C)CCC/C(C)=C/Cc1c(O)c(Cl)c(C)c(C=O)c1O` [Compound 231-9-OMe, 3-Chloro-4,6-dihydroxy-5-[(E)-7-methoxy-3,7-dimethyl-2-octeny]-2-methylbenzaldehyde] the value was 9.54; for `C/C(=C\Cc1c(O)c(Cl)c(C)c(CO)c1O)CC/C=C(\C)COC(=O)C(C)(C)C` [Compound 503-OPiv, (2E,6E)-8-(3-Chloro-2,6-dihydroxy-5-hydroxymethyl-4-methylphenyl)-2,6-dimethyl-2,6-octadienyl pivalate], 9.52.
With `COC(=O)CCCCCCC/C=C/c1c(O)c(Cl)c(C)c(C=O)c1O` [Compound 200-12-COOMe, (E)-Methyl 10-(3-chloro-5-formyl-2,6-dihydroxy-4-methylphenyl)-10-decenoate], the minimum inhibitory concentration (MIC) in the data set on T. b. rhodesiense IL1501 (setting [2]) was 33 nM; in the data set on T. b. rhodesiense IL1501 (setting [3]), 120 nM. Moreover, in data set [1], the pIC50 is 9.30.
Take `CC(=O)c1c(C)c(Cl)c(O)c(CCCCCCCOC(=O)C(C)(C)C)c1O` [Compound 172-11-OPiv, 7-(3-Acetyl-5-chloro-2,6-dihydroxy-4-methylphenyl)heptyl pivalate]: the MIC turned out to be 19 nM with T. b. rhodesiense IL1501 (setting [2]) and 540 nM in the data set on T. b. rhodesiense IL1501 (setting [3]). The pIC50 in data set [1] was 8.10.
As for `CC(=O)c1c(C)c(Cl)c(O)c(C/C=C(\C)CC/C=C(\C)C(C)O)c1O` (stereo not drawn) [Compound 286-9-OH, (2E,6E)-3-Chloro-4,6-dihydroxy-2-methyl-5-(8-hydroxy-3′,7′-dimethyl-2′,6′-nonadienyl)acetophenone], in data set [1], the negative logarithm of the IC50 (pIC50) was 8.15.
Still for that read-out and setting: the value for `Cc1c(Cl)c(O)c(CCCCCCC(C)COC(=O)C(C)(C)C)c(O)c1C=O` (stereo not drawn) [Compound 279-12-OPiv, 8-(3-Chloro-5-formyl-2,6-dihydroxy-4-methylphenyl)-2-methyloctyl pivalate] was 9.39.
